# Paper PMC10349806 (Nature Communications, 2023)
# “And” between values parts separate entries of the source, which are not always exact repeats. Equal values may be shown once.
# What was measured:
# PfCRT variant E207C = assay: CQ uptake assay, oocytes expressing E207C; assay type: cell-based, Plasmodium falciparum
# Description: (§1) Site-directed mutagenesis of PfCRT^Dd2 was performed as described using the megaprimer method with overlap extension[21],[54]. The primer pairs used are listed in Supplementary Table 6. Please note that a codon-optimized and oocyte-adapted version of PfCRT^Dd2 was used[22] (Supplementary Fig. 16). The resulting DNA fragment was cloned into the SP64T expression vector and verified by sequencing.
# (§2) Oocytes were obtained as described previously. Briefly, adult (>2 years old) female X. laevis frogs (NASCO) were anesthetized in a cooled solution of ethyl 3-amino benzoate methanesulfonate (0.1%, w/v), followed by a surgical removal of parts of the ovary. The ovary lobes were carefully dissected and small pieces of oocytes were incubated in Ca^2+-free ND96 buffer (96 mM NaCl, 2 mM KCl, 1 mM MgCl2 buffered with 5 mM HEPES/NaOH, pH 7.5) supplemented with collagenase D (0.1%, w/v; Roche), BSA (0.5%, w/v), and 9 mm Na2HPO4 at 18 °C for 14-16 h while gentle shaking. After incubation, the oocytes were carefully washed several times with ND96 buffer (96 mM NaCl, 2 mM KCl, 1.8 mM CaCl2, 1 mM MgCl2 buffered with 5 mM HEPES/NaOH, pH 7.5) supplemented with 100 mg l^−1 gentamycin). Defolliculated and healthy-looking stage V-VI oocytes were manually selected for RNA microinjection. The RNA was generated as following: The codon-optimized sequences of PfCRT variants were cloned into the pSP64T expression vector. After vector linearization using the restriction endonucleases BamHI or SalI (New England Biolabs), transcription was performed using the in vitro SP6 mMessage mMachine Kit (Ambion)[34]. The obtained RNA was kept at −80 °C and diluted with nuclease-free water to a concentration of 0.6 μg μl^−1. Precision-bore glass capillary tubes (3.5-inch glass capillaries; Drummond Scientific Co.) were pulled on a vertical puller (P-87 Flaming/Brown micropipette puller, Sutter Instrument Co.), graduated, and placed on a microinjector (Nanoject II Auto-Nanoliter Injector, Drummond Scientific Co.). 50 nl of nuclease-free water alone (control oocytes) or 50 nl of 0.6 μg μl^−1 RNA were injected under stereomicroscopic control. Injected oocytes were incubated for 46–72 h at 18 °C with twice-daily buffer changes before usage in experiments.
# (§3) Drug uptake assays were performed as described previously[21],[22],[24],[34]. […] The direction of radio-labeled drug transport is here from the mostly acidic extracellular solution (pH 4.5 or 6.0, as indicated) into the oocyte cytosol (pH ∼ 7.2), which corresponds to the efflux of drug from the acidic digestive vacuole (pH 5.2) into the parasite cytoplasm (pH 7.2). The topology of PfCRT in the oolemma is such that both the N- and C-terminus face the extracellular milieu[3],[22]. In the parasite, the N- and C-terminus face the lumen of the digestive vacuole. CQ uptake kinetics were performed by incubating oocytes in ND96 buffer adjusted to a pH of 4.5, 5.0, 5.5, or 6.0 and supplemented with 50 nM [^3H]CQ and one of 7 different CQ concentrations (10 µM, 50 µM, 100 µM, 200 µM, 300 µM, 400 µM, 500 µM CQ). The reaction was stopped at the 60 min time point, which is in the linear uptake range[22],[34] (Supplementary Fig. 17). For determination of the amount of drug uptake for each oocyte, the reaction medium was removed and the oocytes were washed three times with 2 ml of ice-cold ND96 buffer. Each oocyte was individually transferred to a scintillation vial containing 5% sodium dodecyl sulfate (200 μl) for lysis. The radioactivity of each sample was measured using a liquid scintillation analyzer Tri-Carb 4910 TR (PerkinElmer). Oocytes that were injected with water instead of RNA were analyzed in parallel, representing the uptake of a drug by diffusion and/or endogenous permeation pathways. The resulting value represents the “background“ level of drug accumulation in oocytes (in-depth discussion in[22]). […]
# PfCRT variant F287A = target: T1, PfCRT variant F287A (Plasmodium falciparum, UniProt Q9N623, A220S/F287A/I356T/K76T/M74I/N326S/N75E/Q271E/R371I); assay: CQ uptake assay, oocytes expressing F287A; assay type: cell-based
# T1 sequence (Q9N623 1-424 M74I/N75E/K76T/A220S/Q271E/F287A/N326S/I356T/R371I): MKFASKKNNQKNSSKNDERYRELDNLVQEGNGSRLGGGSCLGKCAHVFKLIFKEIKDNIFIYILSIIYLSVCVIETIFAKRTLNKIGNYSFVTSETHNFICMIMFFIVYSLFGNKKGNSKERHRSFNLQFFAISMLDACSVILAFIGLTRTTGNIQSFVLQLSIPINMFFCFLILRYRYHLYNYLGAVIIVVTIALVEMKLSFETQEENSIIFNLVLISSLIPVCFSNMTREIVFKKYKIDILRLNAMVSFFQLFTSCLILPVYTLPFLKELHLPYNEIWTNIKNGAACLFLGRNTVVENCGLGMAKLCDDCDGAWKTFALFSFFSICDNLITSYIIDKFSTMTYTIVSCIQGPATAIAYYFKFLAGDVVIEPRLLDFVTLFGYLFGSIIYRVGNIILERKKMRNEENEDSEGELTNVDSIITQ
# Description: as §1, §2, §3
# PfCRT variant E121A = assay: CQ uptake assay, oocytes expressing E121A; assay type: cell-based, Plasmodium falciparum
# Description: as §1, §2
# Drug uptake assays were performed as described previously[21],[22],[24],[34]. […] The direction of radio-labeled drug transport is here from the mostly acidic extracellular solution (pH 4.5 or 6.0, as indicated) into the oocyte cytosol (pH ∼ 7.2), which corresponds to the efflux of drug from the acidic digestive vacuole (pH 5.2) into the parasite cytoplasm (pH 7.2). The topology of PfCRT in the oolemma is such that both the N- and C-terminus face the extracellular milieu[3],[22]. In the parasite, the N- and C-terminus face the lumen of the digestive vacuole. CQ uptake kinetics were performed by incubating oocytes in ND96 buffer adjusted to a pH of 4.5, 5.0, 5.5, or 6.0 and supplemented with 50 nM [^3H]CQ and one of 7 different CQ concentrations (10 µM, 50 µM, 100 µM, 200 µM, 300 µM, 400 µM, 500 µM CQ). The reaction was stopped at the 60 min time point, which is in the linear uptake range[22],[34] (Supplementary Fig. 17). […] The radioactivity of each sample was measured using a liquid scintillation analyzer Tri-Carb 4910 TR (PerkinElmer). Oocytes that were injected with water instead of RNA were analyzed in parallel, representing the uptake of a drug by diffusion and/or endogenous permeation pathways. […]
# [1] = E207C, 50 µM CQ, 1 h, mean ± SEM
# [2] = F287A, 50 µM CQ, 1 h, mean ± SEM
# [3] = pH 4.5, single replicates, Fig 1d left
# [4] = pH 6.0, single replicates, Fig 1d left
# [5] = E121A, 50 µM CQ, 1 h, mean ± SEM
smiles,measurement,setting,value
"CCN(CC)CCCC(C)Nc1ccnc2cc(Cl)ccc12 (centres unmarked) [CQ, chloroquine]",Activity at pH 4.5,PfCRT variant E207C; [1],1.30 ± 0.11 pmol h-1 oocyte-1
same,Activity at pH 6.0,PfCRT variant E207C; [1],1.53 ± 0.16 pmol h-1 oocyte-1
same,R-value,"PfCRT variant E207C; E207C, CQ transport at pH 4.5 / pH 6.0",0.86 ± 0.09
same,E207C transport activity pH 4.5,"PfCRT variant E207C; pH 4.5, individual replicates, Fig 6b",0.95 pmol oocyte-1 h-1 and 1.34 pmol oocyte-1 h-1 and 1.57 pmol oocyte-1 h-1 and 1.33 pmol oocyte-1 h-1
same,E207C transport activity pH 6.0,"PfCRT variant E207C; pH 6.0, individual replicates, Fig 6b",1.15 pmol oocyte-1 h-1 and 2.00 pmol oocyte-1 h-1 and 1.64 pmol oocyte-1 h-1 and 1.34 pmol oocyte-1 h-1
same,E207C R-value,PfCRT variant E207C; ratio of activity pH 4.5 / pH 6.0,0.83 and 0.67 and 0.96 and 0.99
same,Activity at pH 4.5,PfCRT variant F287A; [2],1.50 ± 0.05 pmol h-1 oocyte-1
same,Activity at pH 6.0,PfCRT variant F287A; [2],4.71 ± 0.24 pmol h-1 oocyte-1
same,R-value,"PfCRT variant F287A; F287A, CQ transport at pH 4.5 / pH 6.0",0.32 ± 0.02
same,F287A transport activity pH 4.5,PfCRT variant F287A; [3],1.56 pmol oocyte-1 h-1 and 1.62 pmol oocyte-1 h-1 and 1.49 pmol oocyte-1 h-1 and 1.34 pmol oocyte-1 h-1
same,F287 R-value,"PfCRT variant F287A; pH 4.5 vs pH 6.0, Fig 1d left",0.32 and 0.33 and 0.38 and 0.26
same,F287A transport activity pH 6.0,PfCRT variant F287A; [4],4.84 pmol oocyte-1 h-1 and 4.98 pmol oocyte-1 h-1 and 3.89 pmol oocyte-1 h-1 and 5.12 pmol oocyte-1 h-1
same,Activity at pH 4.5,PfCRT variant E121A; [5],1.35 ± 0.09 pmol h-1 oocyte-1
same,Activity at pH 6.0,PfCRT variant E121A; [5],3.95 ± 0.82 pmol h-1 oocyte-1
same,R-value,"PfCRT variant E121A; E121A, CQ transport at pH 4.5 / pH 6.0",0.43 ± 0.06
same,E121A transport activity pH 4.5,PfCRT variant E121A; [3],1.13 pmol oocyte-1 h-1 and 1.51 pmol oocyte-1 h-1 and 1.41 pmol oocyte-1 h-1
same,E121A transport activity pH 6.0,PfCRT variant E121A; [4],5.74 pmol oocyte-1 h-1 and 2.27 pmol oocyte-1 h-1 and 3.83 pmol oocyte-1 h-1
